From patent US20100227313A1, “Methods and Compositions for Determining Altered Susceptibility of HIV-1 to Protease Inhibitor Treatment” (priority 2007, published 2010)

Tested on: HIV-1
Assay: Resistance test vector (PHENOSENSE) phenotypic susceptibility assay, fold change in IC50, correlated with genotype (Fisher's Exact test, odds ratio)
Format: cell-based, human immunodeficiency virus type 1
Source text: See Petropoulos et al., 2000, Antimicrob. Agents Chemother. 44:920-928; U.S. Pat. Nos. 5,837,464 and 6,242,187. PHENOSENSE™ is a phenotypic assay that achieves the benefits of phenotypic testing and overcomes the drawbacks of previous assays.
PHENOSENSE™ can obtain results with only one round of viral replication, thereby avoiding selection of subpopulations of virus that can occur during preparation of viral stocks required for assays that rely on fully infectious virus.
A resistance test vector (“RTV”) can then be constructed by incorporating the amplified viral gene sequences into a replication defective viral vector by using any method known in the art of incorporating gene sequences into a vector. In one embodiment, restrictions enzymes and conventional cloning methods are used. See Sambrook et al., 2001, Molecular Cloning: A Laboratory Manual, Cold Spring Harbor Laboratory, 3rd ed., NY; and Ausubel et al., 1989, Current Protocols in Molecular Biology, Greene Publishing Associates and Wiley Interscience, NY. In a preferred embodiment, ApaI and PinAI restriction enzymes are used. Preferably, the replication defective viral vector is the indicator gene viral vector (“IGVV”). In a preferred embodiment, the viral vector contains a means for detecting replication of the RTV. Preferably, the viral vector contains a luciferase expression cassette.
The assay can be performed by first co-transfecting host cells with RTV DNA and a plasmid that expresses the envelope proteins of another retrovirus, for example, amphotropic murine leukemia virus (MLV). Following transfection, viral particles can be harvested from the cell culture and used to infect fresh target cells in the presence of varying amounts of anti-viral drug(s). The completion of a single round of viral replication in the fresh target cells can be detected by the means for detecting replication contained in the vector. In a preferred embodiment, the completion of a single round of viral replication results in the production of luciferase. By monitoring the amount of, e.g., luciferase activity in the presence of the varying amounts of antiviral drug(s), a resistance curve can be constructed by plotting luciferase activity versus drug concentration. The susceptibility of an HIV, or population of HIV, can be determined by measuring the concentration of antiviral drug at which the luciferase activity detected is half-maximal. This number, the IC50, provides a standard and convenient measure of drug resistance.
Patient derived segment(s) corresponding to the HIV protease and reverse transcriptase coding regions were amplified by the reverse transcription polymerase chain reaction method (RT PCR) using viral RNA isolated from viral particles present in the plasma or serum of HIV infected individuals as follows. Viral RNA was isolated from the plasma or serum using oligo-dT magnetic beads (Dynal Biotech, Oslo, Norway), followed by washing and elution of viral RNA. The RT PCR protocol was divided into two steps. A retroviral reverse transcriptase (e.g. Moloney MuLV reverse transcriptase (Roche Molecular Systems, Inc., Branchburg, N.J.; Invitrogen, Carlsbad, Calif.), or avian myeloblastosis virus (AMV) reverse transcriptase, (Boehringer Mannheim, Indianapolis, Ind.) was used to copy viral RNA into cDNA. The cDNA was then amplified using a thermostable DNA polymerase (e.g. Taq (Roche Molecular Systems, Inc., Branchburg, N.J.), Tth (Roche Molecular Systems, Inc., Branchburg, N.J.), PRIMEZYME™ (isolated from Thermus brockianus, Biometra, Gottingen, Germany)) or a combination of thermostable polymerases as described for the performance of “long PCR” (Barnes, W.M., 1994, Proc. Natl. Acad. Sci, USA 91, 2216 20) (e.g. Expand High Fidelity PCR System (Taq+Pwo), (Boehringer Mannheim. Indianapolis, Ind.); GENEAMP XL™ PCR kit (Tth+Vent), (Roche Molecular Systems, Inc., Branchburg, N.J.); or […] II®, Clontech, Palo Alto, Calif.)

Q: Which results are given for `CC(C)CN(C[C@@H](O)[C@H](Cc1ccccc1)NC(=O)O[C@H]1CO[C@H]2OCC[C@H]21)S(=O)(=O)c1ccc(N)cc1` [DRV, darunavir]?
A: Odds Ratio (mutation A71I in PR, reduced susceptibility (FC>2)): 1.74; Odds Ratio (mutation A71L in PR, reduced susceptibility (FC>2)): 16.53; Odds Ratio (mutation A71T in PR, increased susceptibility (Table 3)): 0.74; Odds Ratio (mutation A431I in gag, reduced susceptibility (FC>2)): 5.60; Odds Ratio (mutation A431V in gag, reduced susceptibility (FC>2)): 1.94; Odds Ratio (mutation C67F in PR, reduced susceptibility (FC>2)): 3.72; Odds Ratio (mutation C95F in PR, reduced susceptibility (FC>2)): 3.13; Odds Ratio (mutation D30N in PR, increased susceptibility (Table 3)): 0.20; Odds Ratio (mutation D425E in gag, reduced susceptibility (FC>2)): 1.49; Odds Ratio (mutation E35N in PR, reduced susceptibility (FC>2)): 2.90; Odds Ratio (mutation E428D in gag, reduced susceptibility (FC>2)): 2.41; Odds Ratio (mutation E467K in gag, reduced susceptibility (FC>2)): 2.41; Odds Ratio (mutation E468K in gag, reduced susceptibility (FC>2)): 2.24; Odds Ratio (mutation F53L in PR, reduced susceptibility (FC>2)): 2.30; Odds Ratio (mutation F53Y in PR, reduced susceptibility (FC>2)): 3.43; Odds Ratio (mutation F463L in gag, reduced susceptibility (FC>2)): 1.68; Odds Ratio (mutation F463S in gag, reduced susceptibility (FC>2)): 3.18; Odds Ratio (mutation F463V in gag, reduced susceptibility (FC>2)): 2.89; Odds Ratio (mutation F465L in gag, reduced susceptibility (FC>2)): 1.66; Odds Ratio (mutation F465S in gag, reduced susceptibility (FC>2)): 2.45; Odds Ratio (mutation G16A in PR, reduced susceptibility (FC>2)): 3.73; Odds Ratio (mutation G73A in PR, reduced susceptibility (FC>2)): 8.81; Odds Ratio (mutation G73C in PR, reduced susceptibility (FC>2)): 2.24; Odds Ratio (mutation G73T in PR, reduced susceptibility (FC>2)): 7.84; Odds Ratio (mutation H69R in PR, reduced susceptibility (FC>2)): 2.59; Odds Ratio (mutation H441Q in gag, reduced susceptibility (FC>2)): 1.99; Odds Ratio (mutation H441Y in gag, increased susceptibility (Table 3)): 0.59; Odds Ratio (mutation I13V in PR, reduced susceptibility (FC>2)): 1.71; Odds Ratio (mutation I15V in PR, reduced susceptibility (FC>2)): 1.53; Odds Ratio (mutation I47V in PR, reduced susceptibility (FC>2)): 13.64; Odds Ratio (mutation I50L in PR, increased susceptibility (Table 3)): 0.12; Odds Ratio (mutation I54A in PR, reduced susceptibility (FC>2)): 2.37; Odds Ratio (mutation I54L in PR, reduced susceptibility (FC>2)): 5.50; Odds Ratio (mutation I54M in PR, reduced susceptibility (FC>2)): 14.47; Odds Ratio (mutation I64L in PR, increased susceptibility (Table 3)): 0.62; Odds Ratio (mutation I64V in PR, increased susceptibility (Table 3)): 0.84; Odds Ratio (mutation I66F in PR, reduced susceptibility (FC>2)): 3.25; Odds Ratio (mutation I66V in PR, reduced susceptibility (FC>2)): 4.86; Odds Ratio (mutation I72L in PR, reduced susceptibility (FC>2)): 3.02; Odds Ratio (mutation I84V in PR, reduced susceptibility (FC>2)): 7.06; Odds Ratio (mutation I85V in PR, reduced susceptibility (FC>2)): 2.76; Odds Ratio (mutation I93L in PR, increased susceptibility (Table 3)): 0.88; Odds Ratio (mutation I437V in gag, reduced susceptibility (FC>2)): 1.95; Odds Ratio (mutation K20R in PR, reduced susceptibility (FC>2)): 1.90; Odds Ratio (mutation K20T in PR, reduced susceptibility (FC>2)): 1.54; Odds Ratio (mutation K20V in PR, reduced susceptibility (FC>2)): 3.40; Odds Ratio (mutation K43R in PR, increased susceptibility (Table 3)): 0.30; Odds Ratio (mutation K43T in PR, reduced susceptibility (FC>2)): 3.72; Odds Ratio (mutation K45R in PR, increased susceptibility (Table 3)): 0.35; Odds Ratio (mutation K55N in PR, reduced susceptibility (FC>2)): 10.28; Odds Ratio (mutation K55R in PR, reduced susceptibility (FC>2)): 2.70; Odds Ratio (mutation L10F in PR, reduced susceptibility (FC>2)): 2.59; Odds Ratio (mutation L19P in PR, reduced susceptibility (FC>2)): 7.16; Odds Ratio (mutation L23I in PR, reduced susceptibility (FC>2)): 2.10; Odds Ratio (mutation L24F in PR, reduced susceptibility (FC>2)): 8.57; Odds Ratio (mutation L33F in PR, reduced susceptibility (FC>2)): 6.78; Odds Ratio (mutation L63A in PR, increased susceptibility (Table 3)): 0.53; Odds Ratio (mutation L63Q in PR, increased susceptibility (Table 3)): 0.49; Odds Ratio (mutation L63S in PR, increased susceptibility (Table 3)): 0.54; Odds Ratio (mutation L76V in PR, reduced susceptibility (FC>2)): 11.18; Odds Ratio (mutation L89I in PR, reduced susceptibility (FC>2)): 2.16; Odds Ratio (mutation L89M in PR, reduced susceptibility (FC>2)): 1.51; Odds Ratio (mutation L89V in PR, reduced susceptibility (FC>2)): 44.56; Odds Ratio (mutation L449V in gag, reduced susceptibility (FC>2)): 4.73; Odds Ratio (mutation L486S in gag, increased susceptibility (Table 3)): 0.51; Odds Ratio (mutation M36L in PR, reduced susceptibility (FC>2)): 2.20; Odds Ratio (mutation M46I in PR, reduced susceptibility (FC>2)): 1.92; Odds Ratio (mutation M46L in PR, reduced susceptibility (FC>2)): 1.60; Odds Ratio (mutation N88D in PR, increased susceptibility (Table 3)): 0.34; Odds Ratio (mutation N88S in PR, increased susceptibility (Table 3)): 0.17; Odds Ratio (mutation P79A in PR, reduced susceptibility (FC>2)): 5.35; Odds Ratio (mutation P79S in PR, reduced susceptibility (FC>2)): 4.96; Odds Ratio (mutation P453L in gag, reduced susceptibility (FC>2)): 1.80; Odds Ratio (mutation P453V in gag, reduced susceptibility (FC>2)): 6.86; Odds Ratio (mutation P459T in gag, reduced susceptibility (FC>2)): 1.69; Odds Ratio (mutation Q58E in PR, reduced susceptibility (FC>2)): 2.41; Odds Ratio (mutation Q61N in PR, reduced susceptibility (FC>2)): 2.48; Odds Ratio (mutation R452K in gag, reduced susceptibility (FC>2)): 2.99; Odds Ratio (mutation R452S in gag, reduced susceptibility (FC>2)): 3.92; Odds Ratio (mutation S451N in gag, increased susceptibility (Table 3)): 0.68; Odds Ratio (mutation S451T in gag, reduced susceptibility (FC>2)): 1.78; Odds Ratio (mutation S462N in gag, reduced susceptibility (FC>2)): 2.29; Odds Ratio (mutation S488A in gag, reduced susceptibility (FC>2)): 2.02; Odds Ratio (mutation S498L in gag, increased susceptibility (Table 3)): 0.48; Odds Ratio (mutation S499L in gag, increased susceptibility (Table 3)): 0.56; Odds Ratio (mutation T4A in PR, reduced susceptibility (FC>2)): 10.65; Odds Ratio (mutation T4S in PR, reduced susceptibility (FC>2)): 2.80; Odds Ratio (mutation T12P in PR, reduced susceptibility (FC>2)): 1.84; Odds Ratio (mutation V11I in PR, reduced susceptibility (FC>2)): 12.85; Odds Ratio (mutation V32I in PR, reduced susceptibility (FC>2)): 18.66; Odds Ratio (mutation V77I in PR, increased susceptibility (Table 3)): 0.64; Odds Ratio (mutation V82A in PR, reduced susceptibility (FC>2)): 1.12; Odds Ratio (mutation V82C in PR, reduced susceptibility (FC>2)): 3.67; Odds Ratio (mutation V82F in PR, reduced susceptibility (FC>2)): 5.47; Odds Ratio (mutation V82I in PR, reduced susceptibility (FC>2)): 2.31; Odds Ratio (mutation V82L in PR, reduced susceptibility (FC>2)): 5.44; Odds Ratio (mutation V82T in PR, reduced susceptibility (FC>2)): 1.84
